Laboratory results: ChEMBL document CHEMBL5465560, “Selectivity Literature for EUbOPEN Chemogenomic Library” (2024)

Experiments:
[1] = molecular target: RAC-beta serine/threonine-protein kinase (Homo sapiens) (UniProt P31751); assay: Selectivity interaction (KinomeScan (DiscoverX)) EUB0000092b AKT2; conditions: at 10 µM
[2] = molecular target: Serine/threonine-protein kinase 25 (Homo sapiens) (UniProt O00506); assay: Selectivity interaction (KinomeScan (DiscoverX)) EUB0000092b STK25; conditions: at 10 µM
Sequence of Serine/threonine-protein kinase 25 (Homo sapiens) (O00506 whole entry, looked up): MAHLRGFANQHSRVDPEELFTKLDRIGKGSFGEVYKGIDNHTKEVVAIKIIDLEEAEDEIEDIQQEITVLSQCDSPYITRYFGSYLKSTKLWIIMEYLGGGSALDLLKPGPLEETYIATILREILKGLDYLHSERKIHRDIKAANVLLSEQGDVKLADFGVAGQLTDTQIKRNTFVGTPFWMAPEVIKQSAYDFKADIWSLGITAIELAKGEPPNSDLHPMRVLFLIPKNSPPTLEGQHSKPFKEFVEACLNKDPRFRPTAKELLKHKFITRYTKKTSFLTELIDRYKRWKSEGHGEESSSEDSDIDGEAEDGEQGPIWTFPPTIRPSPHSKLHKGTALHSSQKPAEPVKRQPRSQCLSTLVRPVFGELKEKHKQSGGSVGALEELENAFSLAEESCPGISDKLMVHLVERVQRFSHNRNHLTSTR

[3] = molecular target: Vascular endothelial growth factor receptor 2 (Homo sapiens, UniProt P35968); assay: Selectivity interaction (Upstate Kinase Profiler service (Millipore)) EUB0000056c KDR; conditions: at 1 µM
Sequence of Vascular endothelial growth factor receptor 2 (P35968 whole entry): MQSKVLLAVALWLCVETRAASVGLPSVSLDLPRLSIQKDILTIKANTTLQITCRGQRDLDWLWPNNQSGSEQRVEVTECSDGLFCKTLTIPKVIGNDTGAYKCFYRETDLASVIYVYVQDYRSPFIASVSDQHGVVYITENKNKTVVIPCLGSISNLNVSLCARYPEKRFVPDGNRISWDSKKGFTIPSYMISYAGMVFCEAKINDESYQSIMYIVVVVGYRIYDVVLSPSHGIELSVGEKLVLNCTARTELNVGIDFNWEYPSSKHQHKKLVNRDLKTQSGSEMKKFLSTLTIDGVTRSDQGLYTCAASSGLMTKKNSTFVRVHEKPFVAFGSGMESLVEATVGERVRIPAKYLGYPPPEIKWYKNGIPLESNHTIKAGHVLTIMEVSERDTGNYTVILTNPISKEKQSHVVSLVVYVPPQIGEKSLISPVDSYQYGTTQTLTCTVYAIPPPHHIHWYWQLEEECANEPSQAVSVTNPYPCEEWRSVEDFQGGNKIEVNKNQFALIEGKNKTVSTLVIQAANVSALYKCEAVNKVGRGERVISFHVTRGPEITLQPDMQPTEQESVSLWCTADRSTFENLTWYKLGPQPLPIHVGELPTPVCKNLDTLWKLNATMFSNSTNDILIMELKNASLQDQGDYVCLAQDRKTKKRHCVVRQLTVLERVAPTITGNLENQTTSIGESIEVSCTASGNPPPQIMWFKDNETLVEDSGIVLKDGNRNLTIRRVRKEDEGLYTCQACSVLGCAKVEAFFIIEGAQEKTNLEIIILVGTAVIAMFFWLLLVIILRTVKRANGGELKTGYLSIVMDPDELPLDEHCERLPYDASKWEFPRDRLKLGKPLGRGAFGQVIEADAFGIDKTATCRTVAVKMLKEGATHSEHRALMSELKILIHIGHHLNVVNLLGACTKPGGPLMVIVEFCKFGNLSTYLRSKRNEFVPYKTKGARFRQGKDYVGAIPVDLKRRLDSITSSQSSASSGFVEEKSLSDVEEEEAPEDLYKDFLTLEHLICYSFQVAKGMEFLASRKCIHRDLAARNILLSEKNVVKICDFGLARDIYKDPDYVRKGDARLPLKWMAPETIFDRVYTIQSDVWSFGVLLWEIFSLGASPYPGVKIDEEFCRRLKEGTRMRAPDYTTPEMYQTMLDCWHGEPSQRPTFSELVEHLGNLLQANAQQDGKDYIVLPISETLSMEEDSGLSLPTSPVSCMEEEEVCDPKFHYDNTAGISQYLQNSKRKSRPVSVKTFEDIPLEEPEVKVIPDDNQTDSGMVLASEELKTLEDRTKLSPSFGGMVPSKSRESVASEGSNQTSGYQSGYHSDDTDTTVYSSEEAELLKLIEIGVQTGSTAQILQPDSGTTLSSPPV

[4] = molecular target: Mitogen-activated protein kinase 9 (Homo sapiens, UniProt P45984); assay: Selectivity interaction (Kinase panel (DSF assay)) EUB0001559a MAPK9
Sequence of Mitogen-activated protein kinase 9 (P45984 whole entry, looked up): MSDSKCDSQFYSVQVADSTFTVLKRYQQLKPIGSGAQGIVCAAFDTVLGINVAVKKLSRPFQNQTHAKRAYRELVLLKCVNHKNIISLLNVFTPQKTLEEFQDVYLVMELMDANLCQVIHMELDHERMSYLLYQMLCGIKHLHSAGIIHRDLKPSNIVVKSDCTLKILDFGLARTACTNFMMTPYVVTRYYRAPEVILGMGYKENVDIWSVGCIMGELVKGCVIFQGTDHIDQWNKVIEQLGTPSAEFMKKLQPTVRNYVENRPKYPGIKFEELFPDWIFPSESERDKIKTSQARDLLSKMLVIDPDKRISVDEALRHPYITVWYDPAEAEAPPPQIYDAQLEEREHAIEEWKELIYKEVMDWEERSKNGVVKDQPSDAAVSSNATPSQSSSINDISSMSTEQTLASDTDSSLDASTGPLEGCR

[5] = molecular target: T1, Ribosomal protein S6 kinase delta-1 (Homo sapiens) (UniProt Q96S38); assay: Selectivity interaction (Kinase panel (KiNativ target engagement assay in Jurkat cells)) EUB0001635a RPS6KC1; format: cell-based; conditions: Selectivity number of off-targets 0.0, Selectivity number of targets 233.0, Source Knowledge https://www.sciencedirect.com/science/article/pii/S2451945619300674?via%3Dihub, at 1 µM
T1 sequence (whole entry): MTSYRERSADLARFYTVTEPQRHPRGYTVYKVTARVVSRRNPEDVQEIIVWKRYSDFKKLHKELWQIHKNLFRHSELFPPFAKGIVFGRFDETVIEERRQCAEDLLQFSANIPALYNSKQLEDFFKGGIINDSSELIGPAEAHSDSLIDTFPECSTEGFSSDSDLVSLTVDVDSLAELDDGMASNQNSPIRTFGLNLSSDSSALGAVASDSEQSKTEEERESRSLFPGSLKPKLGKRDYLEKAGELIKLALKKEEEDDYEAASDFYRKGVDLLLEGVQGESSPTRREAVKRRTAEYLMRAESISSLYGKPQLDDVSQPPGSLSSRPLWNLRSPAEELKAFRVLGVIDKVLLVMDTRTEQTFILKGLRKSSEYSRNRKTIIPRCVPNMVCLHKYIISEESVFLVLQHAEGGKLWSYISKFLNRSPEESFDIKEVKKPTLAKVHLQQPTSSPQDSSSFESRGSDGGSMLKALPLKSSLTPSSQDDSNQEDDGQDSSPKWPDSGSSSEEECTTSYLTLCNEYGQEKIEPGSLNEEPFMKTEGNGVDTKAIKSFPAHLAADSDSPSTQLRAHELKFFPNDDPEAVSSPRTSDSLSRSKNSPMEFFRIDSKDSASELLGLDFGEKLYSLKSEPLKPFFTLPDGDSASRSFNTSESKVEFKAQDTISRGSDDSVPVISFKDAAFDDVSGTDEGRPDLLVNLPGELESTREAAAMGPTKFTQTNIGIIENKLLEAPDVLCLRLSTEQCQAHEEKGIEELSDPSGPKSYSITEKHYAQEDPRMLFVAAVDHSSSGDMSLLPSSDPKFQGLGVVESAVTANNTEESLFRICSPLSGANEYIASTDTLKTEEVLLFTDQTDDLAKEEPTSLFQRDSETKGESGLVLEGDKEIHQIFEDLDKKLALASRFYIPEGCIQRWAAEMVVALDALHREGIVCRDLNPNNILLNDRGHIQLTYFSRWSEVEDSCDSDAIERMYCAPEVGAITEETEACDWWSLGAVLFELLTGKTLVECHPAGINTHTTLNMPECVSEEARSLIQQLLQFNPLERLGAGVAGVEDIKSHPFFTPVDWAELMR

[6] = molecular target: RAC-alpha serine/threonine-protein kinase (Homo sapiens, UniProt P31749); assay: Selectivity interaction (SelectScreen profiling (Invitrogen)) EUB0000607a AKT1; conditions: at 2 µM
[7] = molecular target: Ephrin type-A receptor 7 (Homo sapiens) (UniProt Q15375); assay: Selectivity interaction (KinomeScan (DiscoverX)) EUB0001049a EPHA7; conditions: at 1 µM
Sequence of Ephrin type-A receptor 7 (Homo sapiens) (Q15375 28-998 limits assumed): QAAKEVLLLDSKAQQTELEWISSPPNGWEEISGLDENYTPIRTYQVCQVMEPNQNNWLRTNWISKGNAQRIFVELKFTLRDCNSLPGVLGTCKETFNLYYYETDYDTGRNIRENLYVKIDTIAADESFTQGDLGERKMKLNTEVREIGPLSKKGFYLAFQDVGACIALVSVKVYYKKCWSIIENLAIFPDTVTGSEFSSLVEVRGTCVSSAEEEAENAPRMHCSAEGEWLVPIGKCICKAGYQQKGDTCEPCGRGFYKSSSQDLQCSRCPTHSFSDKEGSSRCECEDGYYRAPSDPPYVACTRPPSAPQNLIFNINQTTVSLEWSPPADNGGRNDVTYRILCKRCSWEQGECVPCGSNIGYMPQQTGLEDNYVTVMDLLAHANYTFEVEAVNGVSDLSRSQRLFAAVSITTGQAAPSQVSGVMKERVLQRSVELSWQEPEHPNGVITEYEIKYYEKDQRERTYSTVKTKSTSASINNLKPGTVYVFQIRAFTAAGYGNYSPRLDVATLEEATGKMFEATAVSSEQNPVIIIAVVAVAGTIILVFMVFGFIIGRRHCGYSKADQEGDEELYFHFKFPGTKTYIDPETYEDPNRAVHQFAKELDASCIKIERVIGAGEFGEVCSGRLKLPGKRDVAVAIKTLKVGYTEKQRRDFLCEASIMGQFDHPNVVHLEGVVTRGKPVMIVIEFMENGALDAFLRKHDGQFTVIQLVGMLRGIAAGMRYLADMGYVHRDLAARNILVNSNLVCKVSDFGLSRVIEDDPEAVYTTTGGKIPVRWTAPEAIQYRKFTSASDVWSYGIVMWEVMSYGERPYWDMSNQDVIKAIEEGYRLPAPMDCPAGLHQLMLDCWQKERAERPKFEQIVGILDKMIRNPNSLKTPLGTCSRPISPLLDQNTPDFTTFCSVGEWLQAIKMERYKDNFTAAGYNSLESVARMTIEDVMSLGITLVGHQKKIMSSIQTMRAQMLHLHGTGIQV

[8] = molecular target: T2, Mitogen-activated protein kinase 13 (Homo sapiens) (UniProt O15264); assay: Selectivity interaction (KinomeScan (DiscoverX)) EUB0000695a MAPK13; conditions: at 100 nM
T2 sequence (whole entry): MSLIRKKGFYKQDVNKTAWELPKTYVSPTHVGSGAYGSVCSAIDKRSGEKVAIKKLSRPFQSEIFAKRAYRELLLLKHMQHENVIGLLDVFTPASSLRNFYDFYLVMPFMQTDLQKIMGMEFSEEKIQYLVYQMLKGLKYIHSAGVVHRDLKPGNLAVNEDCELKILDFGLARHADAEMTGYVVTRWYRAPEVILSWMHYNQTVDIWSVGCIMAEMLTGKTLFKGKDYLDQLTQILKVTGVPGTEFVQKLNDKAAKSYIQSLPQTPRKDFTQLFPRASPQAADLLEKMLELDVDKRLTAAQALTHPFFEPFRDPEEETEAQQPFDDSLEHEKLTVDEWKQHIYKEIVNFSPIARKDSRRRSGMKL

[9] = system: Phosphatidylinositol 4,5-bisphosphate 3-kinase catalytic subunit alpha isoform (Homo sapiens), P42336 [H1047L]; assay: (§1) Selectivity interaction (KinomeScan (DiscoverX)) EUB0000695a PIK3CA; conditions: at 100 nM
[10] = system: Phosphatidylinositol 4,5-bisphosphate 3-kinase catalytic subunit alpha isoform (Homo sapiens), P42336 [M1043I]; assay: as §1; conditions: at 100 nM
[11] = system: Phosphatidylinositol 4,5-bisphosphate 3-kinase catalytic subunit alpha isoform (Homo sapiens), P42336 [E542K]; assay: as §1; conditions: at 100 nM
Sequence of Phosphatidylinositol 4,5-bisphosphate 3-kinase catalytic subunit alpha isoform (Homo sapiens), P42336 [E542K] (P42336 whole entry E542K, canonical isoform): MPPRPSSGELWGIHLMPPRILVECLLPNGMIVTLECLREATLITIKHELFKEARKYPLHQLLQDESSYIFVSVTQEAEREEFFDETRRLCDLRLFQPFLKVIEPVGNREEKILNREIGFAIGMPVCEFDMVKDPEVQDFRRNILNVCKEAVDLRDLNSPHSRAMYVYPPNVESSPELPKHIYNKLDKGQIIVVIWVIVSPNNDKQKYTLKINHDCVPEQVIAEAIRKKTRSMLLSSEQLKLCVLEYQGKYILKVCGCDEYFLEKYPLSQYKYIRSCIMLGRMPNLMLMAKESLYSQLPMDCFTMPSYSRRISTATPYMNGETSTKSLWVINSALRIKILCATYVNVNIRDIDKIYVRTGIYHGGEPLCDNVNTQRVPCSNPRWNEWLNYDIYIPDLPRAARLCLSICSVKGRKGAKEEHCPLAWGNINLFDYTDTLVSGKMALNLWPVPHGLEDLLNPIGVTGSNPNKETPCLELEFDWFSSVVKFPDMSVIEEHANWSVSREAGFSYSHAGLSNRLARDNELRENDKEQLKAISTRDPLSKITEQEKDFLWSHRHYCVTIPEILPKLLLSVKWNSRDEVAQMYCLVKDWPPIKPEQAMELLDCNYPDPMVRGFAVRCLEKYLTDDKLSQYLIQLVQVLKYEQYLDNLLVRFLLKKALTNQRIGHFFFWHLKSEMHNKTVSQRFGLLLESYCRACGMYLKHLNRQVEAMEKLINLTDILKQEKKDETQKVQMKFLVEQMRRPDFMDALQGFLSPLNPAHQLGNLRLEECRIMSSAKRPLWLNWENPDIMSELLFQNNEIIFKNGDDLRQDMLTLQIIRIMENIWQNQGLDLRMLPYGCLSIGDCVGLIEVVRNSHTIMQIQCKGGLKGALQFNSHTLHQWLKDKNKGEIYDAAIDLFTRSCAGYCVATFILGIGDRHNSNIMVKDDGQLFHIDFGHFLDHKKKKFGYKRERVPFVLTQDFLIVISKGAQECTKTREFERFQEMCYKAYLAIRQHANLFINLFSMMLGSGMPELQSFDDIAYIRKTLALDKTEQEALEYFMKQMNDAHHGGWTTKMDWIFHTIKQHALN

[12] = system: Phosphatidylinositol 4,5-bisphosphate 3-kinase catalytic subunit alpha isoform (Homo sapiens), P42336 [Q546K]; assay: as §1; conditions: at 100 nM
[13] = molecular target: Phosphatidylinositol 4,5-bisphosphate 3-kinase catalytic subunit alpha isoform (Homo sapiens) (UniProt P42336); assay: as §1; conditions: at 100 nM
[14] = molecular target: Ribosomal protein S6 kinase beta-1 (Homo sapiens, UniProt P23443); assay: Selectivity interaction (Ambit KINOMEscan and KiNATiv profiling in Jurkat cells) EUB0000090b RPS6KB1; format: cell-based; conditions: at 1 µM

Sequence of RAC-beta serine/threonine-protein kinase (Homo sapiens) (P31751 whole entry): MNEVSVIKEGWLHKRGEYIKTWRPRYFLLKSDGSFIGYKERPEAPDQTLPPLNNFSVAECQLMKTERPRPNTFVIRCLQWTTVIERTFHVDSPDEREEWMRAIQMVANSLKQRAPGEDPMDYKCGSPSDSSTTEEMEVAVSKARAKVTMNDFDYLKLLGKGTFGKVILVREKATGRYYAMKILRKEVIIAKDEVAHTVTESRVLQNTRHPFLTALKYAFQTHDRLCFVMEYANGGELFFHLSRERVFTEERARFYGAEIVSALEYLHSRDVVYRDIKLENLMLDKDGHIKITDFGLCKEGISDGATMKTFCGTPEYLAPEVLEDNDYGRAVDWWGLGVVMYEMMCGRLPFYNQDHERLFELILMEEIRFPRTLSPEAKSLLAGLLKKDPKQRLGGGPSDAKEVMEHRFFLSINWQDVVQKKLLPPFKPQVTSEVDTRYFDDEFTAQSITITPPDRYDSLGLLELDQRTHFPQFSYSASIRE

SMILES: CCC(=O)N1CCN(c2ccc(-n3c(=O)ccc4cnc5ccc(-c6cnc7ccccc7c6)cc5c43)cc2C(F)(F)F)CC1
- % of control [1]: 100%
- % of control [2]: 84%

SMILES: Cc1ccc(-c2ccc3c(ccc4sc5c(c43)NC[C@@H](C)NC5=O)n2)cn1
- % of inhibition [3]: 21%

SMILES: CN(C(=O)c1cnn2cccnc12)c1cc2c(cc1N1CCOCC1)C(=O)N(C[C@@H](F)C(C)(C)O)C2
- dTM [4]: 0.5 K

SMILES: C=CC(=O)Nc1ccc(C(=O)Nc2[nH]nc3c2CN(C(=O)N[C@H](CN(C)C)c2ccccc2)C3(C)C)cc1
- % of engagement [5]: 0.7%

SMILES: CNC(=O)Nc1ccc(-c2nc(N3CC4CCC(C3)O4)c3cnn(C4CCC5(CC4)OCCO5)c3n2)cc1
- % of inhibition [6]: -5%

SMILES: COc1cc(Nc2nc(C)cc(-c3cnn4nc(OC)ccc34)n2)cc(C(F)(F)F)c1
- % of control [7]: 77%

SMILES: Cc1cc(F)c(C(=O)Nc2cccc(-c3nncn3C(C)C)n2)cc1-n1cnc(C2CC2)c1
- % of control [8]: 100%
- % of control [9]: 100%
- % of control [10]: 93%
- % of control [11]: 100%
- % of control [12]: 100%
- % of control [13]: 100%

SMILES: CN(C)C/C=C/C(=O)Nc1ccc(C(=O)N2CCCC(Nc3ncc(Cl)c(-c4c[nH]c5ccccc45)n3)C2)cc1 (centres undefined)
- % of control [14]: 83%
